Columns and labels:
[1] = Affinity to hair (contact angle); settings: 50 wt % aqueous solution; condition B (hair iron, 160° C.)
[2] = Sensory evaluation on damaged hair after using organic ammonium salt; design: species or system human; settings: damaged hair, 80 wt % aqueous solution
Method: Here, an 80 wt % aqueous solution(s) of each of the compounds B11, B12, B23, B26 and B27 (content in terms of anhydride in the cases of the compounds B11, B12 and B23) were prepared and used as samples. Next, one minute was spent in evenly applying 10.0 g of each sample to a bundle of the damaged hairs weighing about 10 g, using a brush; the bundle of the damaged hairs was then left for 5 min. After leaving it for 5 min, the bundle of the damaged hairs was rinsed with a hot water of 40° C. for 30 sec, and evaluated was a finger-combing capability at the time of performing washing. The hair bundle that had been rinsed was then dried with a towel and further subjected to air drying for a day, followed by evaluating items such as elasticity/resilience (feeling by bare hands), cohesiveness, surface smoothness and non-waviness, from the perspective of superiority or inferiority to a test hair bundle(s) uncoated with the sample.

[3] = Water retention property and adherability with respect to healthy hair; design: species or system human
Method: In the following evaluations, a human black hair produced by Beaulax Co., Ltd was used as a healthy hair. A damaged hair was prepared by repeatedly having the healthy hair permed and bleached three times.
An 80 wt % aqueous solution of each of the compounds B1 to B26 (content in terms of anhydride in the cases of the compounds B1 to B23) was prepared, followed by using a Karl Fischer moisture meter (KF-200 by Mitsubishi Chemical Analytech Co., Ltd.) to confirm that a moisture rate was 20.0 wt %. As a healthy hair, there was used a chemically untreated healthy hair (human black hair by Beaulax Co., Ltd). The moisture rate (pre-test moisture rate A) of the hair was measured by an infrared moisture meter (by Kett Electric Laboratory).
After immersion, the hair was taken out, and KimWipes were then used to wipe off the compound until a change in weight was no longer observed, followed by measuring the weight of the hair (post-test hair weight B). The hair from which the compound had been wiped off was then placed into a thermo-hygrostat set to 40° C. and 35 to 40% RH. A moisture rate after 24 hours (post-test moisture rate B) was then measured, followed by calculating a rate of reduction in moisture with the following formula. Likewise, instead of the 80 wt % aqueous solution, evaluation was also performed in a similar manner using only an ion-exchange water (comparative example B4).
Further, an adhesion rate of the compound adhering to the hair was calculated with the following formula. […]

[4] = Sensory evaluation on healthy hair after using organic ammonium salt; design: species or system human; key to When washing: Finger-combing capability: ⊚: Superior; ∘: Favorable; Δ: No change; x: Inferior; settings: healthy hair, 80 wt % aqueous solution
Method: Here, an 80 wt % aqueous solution(s) of each of the compounds B11, B12, B23, B26 and B27 (content in terms of anhydride in the cases of the compounds B11, B12 and B23) were prepared and used as samples. Next, one minute was spent in evenly applying 10.0 g of each sample to a bundle of the healthy hairs weighing about 10 g, using a brush; the bundle of the healthy hairs was then left for 5 min. After leaving it for 5 min, the bundle of the healthy hairs was rinsed with a hot water of 40° C. for 30 sec, and evaluated was a finger-combing capability at the time of performing washing. The hair bundle that had been rinsed was then dried with a towel and further subjected to air drying for a day, followed by evaluating items such as flexibility, finger-combing capability, texture, elasticity/resilience (feeling by bare hands), volume increase (visual evaluation), cohesiveness, moist feeling, surface smoothness, non-stickiness (feeling by bare hands) and gloss (visual evaluation), from the perspective of superiority or inferiority to a test hair bundle(s) uncoated with the sample.

[5] = Sensory evaluation on healthy hair after using conditioner containing organic ammonium salt; design: species or system human; settings: conditioner containing 3.0% by mass of the compound
Method: Here, 4.5% by mass of a stearyl alcohol (KALCOL 8688 by Kao Corporation), 2.0% by mass of a behenyl alcohol (KALCOL 220-80 by Kao Corporation) and 0.5% by mass of a phenoxyethanol (Hisolve EPH by TOHO Chemical Industry Co., Ltd.) were mixed together and heated to 75° C. to obtain a liquid A. Further, 3.0% by mass of a behentrimonium chloride (CATINAL DC-80 by TOHO Chemical Industry Co., Ltd.), 5.0% by mass of dipropylene glycol and 3.0% by mass of each of the compounds B11, B23, B26, B27 and B28 (content in terms of anhydride in the cases of the compounds B11 and B23) were added together, followed by adding a purified water thereto, and then melting them at 80° C., thus obtaining a liquid B. The liquid B was then gradually added to the liquid A, and stirring was performed at 75° C. for 20 min. Next, the mixture was cooled to a temperature of 40° C. or lower, and a purified water of an evaporated amount was then added thereto so that the whole hair treatment composition would be 100% by mass, followed by uniformly mixing them so as to obtain a hair treatment composition(s).
About 5 g of the healthy hair was dipped into and kept immersed in 150 g of a seven-time dilute aqueous solution of each of the abovementioned hair treatment compositions (conditioners) at 40° C. for 30 min. […] After air drying, a combing capability, cohesiveness and non-stickiness of the hair were evaluated.

[6] = Sensory evaluation on damaged hair after using shampoo agent containing organic ammonium salt; design: species or system human; settings: shampoo agent containing the compound; treated 10 times
Method: (§1) Next, the mixture was cooled to a temperature of 30° C. or lower, and a purified water of an evaporated amount was then added thereto so that the whole hair treatment composition would be 100% by mass, followed by uniformly mixing them so as to obtain a hair treatment composition(s). The pH level of the hair treatment composition was adjusted to pH 6.0 by adding a citric acid or sodium hydroxide.
The damaged hair was repeatedly treated 10 times in a similar manner as 3-1; evaluated were a cohesiveness of the hair, surface smoothness of the hair and waviness of the hair after performing air drying.

[7] = Surface resistance measurement of organic ammonium salt; settings: 0.7 g applied to polyurethane artificial leather; dried, coating in solid state
[8] = Sensory evaluation on healthy hair after using shampoo agent containing organic ammonium salt; design: species or system human; settings: shampoo agent containing 3.0% by mass of the compound; treated 10 times
Method: as §1
About 5 g of the healthy hair was taken and dipped into 350 ml of a seven-time dilute aqueous solution of each of the abovementioned hair treatment compositions (shampoo agents) at 35 to 40° C. so as to be washed. The healthy hair was then subjected to a rinsing treatment five times using 500 ml of a warm water of 35 to 40° C., followed by drying the same at 80° C., and then performing air drying at 25° C. Such series of treatment involving hair washing, rinsing and drying was repeated 10 times to then evaluate a cohesiveness of the hair, a moist feeling of the hair, a gloss of the hair, a surface smoothness of the hair and a non-stickiness on the surface of the hair, after performing air drying.

[9] = Water confinement property test (barrier property); assay type: physicochemical; settings: 80 wt % aqueous solution, 0.01 mL/cm^2 on filter paper, 40° C. and 25% RH, 24 hours
Method: Next, 20.0 g of an ion-exchange water was put into a 40 mL pierce vial bottle (by AS ONE Corporation.), followed by removing an inner lid (rubber plug) of the pierce vial bottle, placing on the pierce vial bottle the filter paper to which each sample had been applied, and then plugging the bottle with an outer lid.
Further, Wm1, Wm2, Sm1 and Sm2 in the formula below respectively represent the following numerical values.
Wm1: Weight of ion-exchange water in vial before storage (using filter paper to which only ion-exchange water had been applied)
Wm2: Weight of ion-exchange water in vial after 24 hours (using filter paper to which only ion-exchange water had been applied)
Sm1: Weight of ion-exchange water in vial before storage (using filter paper to which sample had been applied)
Sm2: Weight of ion-exchange water in vial after 24 hours (using filter paper to which sample had been applied)

[10] = Stability of ascorbic acid-based compound (coloration); assay type: physicochemical; design: key to Appearance (Visual evaluation) Immediately after preparatiom / Appearance (Visual evaluation) After 7 days 50° C. / Appearance (Visual evaluation) After 7 days Room temperature: ⊚: Colorless and transparent; ∘: Light yellow; Δ: Yellow; x: Brown to black; settings: 33 wt % aqueous solution
Method: With regard to a 33 wt/% aqueous solution of each of the compounds C46, C49 and C98 to C100 and water, a stability in an aqueous solution condition was visually evaluated. An evaluation method was such that there was prepared a 33 wt % aqueous solution of each of the compounds C46, C49 and C98 to C100, the aqueous solution was then left to stand still at room temperature or in a thermostatic bath of 50° C. for seven days; coloration before and after the still standing was visually confirmed. The evaluation criteria were as follows. • ⊚: Colorless and transparent • ∘: Light yellow • Δ: Yellow • x: Brown to black

[11] = Water retention property test 1; assay type: physicochemical; settings: 80 wt % aqueous solution
Method: A moisture rate after 24 hours was again measured (post-test moisture rate: B), followed by using the formula below to calculate a rate of reduction in moisture so as to evaluate the water retention property. • Pre-test moisture rate: A (%) • Post-test moisture rate: B (%)

Tyrosinase = assay: Whitening effect: tyrosinase activity inhibition test; assay type: biochemical; settings: compound concentration 500 μg/mL; substrate D, L-DOPA; room temperature for a week
Method: With regard to a 50 wt/% aqueous solution of each of the compounds C46, C49 and C101, a whitening effect was confirmed via a tyrosinase activity inhibition test. Tyrosinase (by SIGMA-ALDRICH) was dissolved with a 67 mM phosphate buffer solution (pH 6.8) so that the concentration of the tyrosinase would be 0.2 mg/mL, thereby obtaining an enzyme solution. Further, a substrate solution was prepared by dissolving 3 mg of D, L-DOPA (by Tokyo Chemical Industry Co., Ltd.) into 10 mL of the 67 mM phosphate buffer solution. […] Next, 80 μL of the substrate solution was quickly added to the preincubated solution, and an absorbance (A1) at 475 nm immediately after the addition of the substrate solution was then measured. Further, after leaving this solution to stand still at room temperature for a week, an absorbance (A2) at 475 nm was again measured.
In addition, as a control, there were prepared samples containing an ultrapure water instead of the compounds of the working examples; and in a similar manner as above, there were measured an absorbance (A3) at 475 nm immediately after the addition of the substrate, and an absorbance (A4) at 475 nm after leaving the solution at room temperature for a week.
An inhibition rate was calculated with the following formula.

[12] = Water retention property and adherability with respect to damaged hair; design: species or system human; settings: concentration 50 wt % (Table 11)
Method: A damaged hair was prepared by the following method.
A damaged hair was produced by performing these perm treatment and bleach treatment three times.

## NC(CO)(CO)CO.O=C(O)CO [Compound B12]
[1]
  Contact angle of water droplet on treated hair: infiltrated the hair
[2]
  After air drying: Cohesiveness of hair: ◯~Δ
  After air drying: Elasticity/Resilience: ◯~Δ
  After air drying: Smoothness of hair surface: ◯~Δ
  After air drying: Suppression of hair waviness: ◯
  When washing: Finger-combing capability: ◯~Δ
[3]; healthy hair immersed 60 min in 80 wt % aqueous solution
  Compound adhesion rate: 1.6%
[3]; healthy hair immersed 60 min in 80 wt % aqueous solution, after 24 hours at 40° C., 35 to 40% RH, pre-test 7.6%
  Post-test moisture rate: 5.4%
[3]; healthy hair, 80 wt % aqueous solution, 24 hours at 40° C., 35 to 40% RH
  Rate of reduction in moisture: 29%
[4]
  After air drying: Cohesiveness of hair: ◯~Δ
  After air drying: Elasticity/Resilience: ◯~Δ
  After air drying: Finger-combing capability: ◯~Δ
  After air drying: Flexibility: ◯~Δ
  After air drying: Gloss of hair: ◯~Δ
  After air drying: Moist feeling: ◯~Δ
  After air drying: Non-stickiness of hair surface: ◯~Δ
  After air drying: Smoothness of hair surface: ◯~Δ
  After air drying: Texture: ◯~Δ
  After air drying: Volume increase: ◯~Δ
[4]; versus uncoated hair bundle
  When washing: Finger-combing capability: ⊚

## CC(O)C(=O)[O-].[Na+] (centres unmarked) [Compound B28, sodium lactate]
[5]
  Combing capability, cohesiveness and non-stickiness of healthy hair after conditioner: poor hair cohesiveness
[6]
  Sensory evaluation of damaged hair after shampoo agent (cohesiveness, surface smoothness, waviness): inferior surface smoothness
[7]
  Surface resistance value: 2×10^8 Ω
[8]
  Sensory evaluation of healthy hair after shampoo agent (cohesiveness, moist feeling, gloss, smoothness, non-stickiness): inferior in general

## NC(CO)(CO)CO.O=C1OC(C(O)CO)C(O)=C1O (centres unmarked) [Compound C49]
[9]
  Water evaporation inhibition rate: 32.19%
[10]
  Appearance (Visual evaluation) After 7 days 50° C.: Δ
  Appearance (Visual evaluation) After 7 days Room temperature: ○
  Appearance (Visual evaluation) Immediately after preparatiom: ⊚
[10]; room temperature or 50° C., seven days
  Coloration of aqueous solution (stability): significant improvements in coloration
[11]
  Water retention property test 1 Pre-test moisture rate: 20.0%
[11]; 24 hours at 40° C. and 25% RH
  Water retention property test 1 Post-test moisture rate: 19.4%
  Water retention property test 1 Rate of reduction in moisture: 3.0%
Tyrosinase
  Tyrosinase activity inhibition rate: 95.8%

## CC(O)C(=O)O (centres unmarked) [lactic acid, reference compound]
[12]
  Hair adhesion rate: 1.1%
[3]; healthy hair, concentration 50 wt % (Table 11)
  Hair adhesion rate: 1.1%
